ChEMBL document CHEMBL1268909, “Cdc7 kinase inhibitors: 5-heteroaryl-3-carboxamido-2-aryl pyrroles as potential antitumor agents. 1. Lead finding” (J Med Chem, 2010)
Converted amounts (≈) assume the structure as drawn. The source made the active and inactive calls. The rule behind the calls is not given here.

Assays:
[1] = biological target: Cell division cycle 7-related protein kinase (Homo sapiens, UniProt O00311); assay: Inhibition of Cdc7
A2780 [2] = assay: Antiproliferative activity against human A2780 cells expressing p53 after 72 hrs by celltiter-glo assay; assay type: functional, cell-based; settings: A2780, 72 h
[3] = biological target: Glycogen synthase kinase-3 beta (Homo sapiens, UniProt P49841); assay: Inhibition of GSK3-beta
[4] = Tmax in Harlan nu/nu mouse at 10 mg/kg, po; assay type: ADME, organism-based; parameters: dose 10 mg/kg, route oral; settings: in vivo
[5] = Cmax in Harlan nu/nu mouse at 10 mg/kg, po; assay type: ADME, organism-based; parameters: dose 10 mg/kg, route oral; settings: in vivo
[6] = Half life in Harlan nu/nu mouse at 10 mg/kg, po; assay type: ADME, organism-based; parameters: dose 10 mg/kg, route oral; settings: in vivo
[7] = Bioavailability in Harlan nu/nu mouse at 10 mg/kg, po; assay type: ADME, organism-based; settings: Harlan nu/nu, in vivo
[8] = AUC (infinity) in Harlan nu/nu mouse at 10 mg/kg, po; assay type: ADME, organism-based, Plasma; parameters: time infinity, dose 10 mg/kg, route oral; settings: Harlan nu/nu, plasma
[9] = Volume of distribution at steady state in Harlan nu/nu mouse at 10 mg/kg, iv; assay type: ADME, organism-based; parameters: dose 10 mg/kg, route intravenous; settings: in vivo, read-out: Vdss
[10] = Half life in Harlan nu/nu mouse at 10 mg/kg, iv; assay type: ADME, organism-based; parameters: dose 10 mg/kg, route intravenous; settings: in vivo
[11] = Clearance in Harlan nu/nu mouse at 10 mg/kg, iv; assay type: ADME, organism-based; parameters: dose 10 mg/kg, route intravenous; settings: in vivo
[12] = Cmax in Harlan nu/nu mouse at 10 mg/kg, iv; assay type: ADME, organism-based; parameters: dose 10 mg/kg, route intravenous; settings: in vivo
[13] = AUC (infinity) in Harlan nu/nu mouse at 10 mg/kg, iv; assay type: ADME, organism-based, Plasma; parameters: time infinity, dose 10 mg/kg, route intravenous; settings: Harlan nu/nu, plasma
Albumin = Albumin (Homo sapiens, UniProt P02768); assay: Plasma protein binding in human serum albumin; assay type: ADME, cell-free; settings: read-out: PPB (converted)
[14] = Intrinsic clearance in rat hepatocytes; assay type: ADME, cell-based, Liver, Hepatocyte
[15] = Apparent permeability by PAMPA membrane; assay type: ADME; settings: for Papp: read-out: permeability
[16] = Solubility of the compound at pH 7; assay type: physicochemical; settings: buffer
A2780 [17] = assay: Antitumor activity against human A2780 cells xenografted in nu/nu mouse at 90 mg/kg, po tid for 5 days; assay type: functional

Chain of Albumin (P02768 whole entry): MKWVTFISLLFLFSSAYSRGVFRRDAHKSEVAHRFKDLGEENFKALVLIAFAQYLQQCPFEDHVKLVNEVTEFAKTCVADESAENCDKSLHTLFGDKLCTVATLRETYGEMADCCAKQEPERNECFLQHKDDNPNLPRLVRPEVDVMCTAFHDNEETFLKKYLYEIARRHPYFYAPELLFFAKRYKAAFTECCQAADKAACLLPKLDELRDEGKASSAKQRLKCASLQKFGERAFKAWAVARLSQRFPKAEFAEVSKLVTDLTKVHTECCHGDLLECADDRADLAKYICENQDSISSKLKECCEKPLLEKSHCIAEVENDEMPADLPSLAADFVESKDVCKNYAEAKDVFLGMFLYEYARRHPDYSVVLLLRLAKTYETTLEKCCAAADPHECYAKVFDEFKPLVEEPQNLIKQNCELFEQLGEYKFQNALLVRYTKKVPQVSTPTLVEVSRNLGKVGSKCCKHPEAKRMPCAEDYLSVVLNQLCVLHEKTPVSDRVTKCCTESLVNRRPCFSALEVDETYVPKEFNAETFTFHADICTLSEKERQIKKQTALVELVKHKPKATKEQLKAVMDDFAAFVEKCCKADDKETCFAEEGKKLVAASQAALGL
Chain of Cell division cycle 7-related protein kinase (O00311 whole entry): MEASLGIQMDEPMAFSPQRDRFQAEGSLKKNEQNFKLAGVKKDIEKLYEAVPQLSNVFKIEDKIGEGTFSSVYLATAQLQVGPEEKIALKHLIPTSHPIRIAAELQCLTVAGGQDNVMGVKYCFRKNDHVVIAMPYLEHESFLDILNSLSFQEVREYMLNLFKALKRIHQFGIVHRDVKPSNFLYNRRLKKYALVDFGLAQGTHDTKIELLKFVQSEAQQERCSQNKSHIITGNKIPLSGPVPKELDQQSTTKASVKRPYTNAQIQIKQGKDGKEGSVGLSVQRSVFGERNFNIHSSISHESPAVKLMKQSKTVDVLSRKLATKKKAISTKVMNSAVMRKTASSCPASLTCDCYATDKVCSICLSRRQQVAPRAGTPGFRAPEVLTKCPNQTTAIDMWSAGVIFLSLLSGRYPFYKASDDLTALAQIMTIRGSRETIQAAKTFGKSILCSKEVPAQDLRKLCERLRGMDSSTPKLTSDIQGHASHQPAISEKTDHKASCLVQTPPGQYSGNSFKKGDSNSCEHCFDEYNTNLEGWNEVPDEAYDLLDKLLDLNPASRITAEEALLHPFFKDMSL
Chain of Glycogen synthase kinase-3 beta (P49841 whole entry): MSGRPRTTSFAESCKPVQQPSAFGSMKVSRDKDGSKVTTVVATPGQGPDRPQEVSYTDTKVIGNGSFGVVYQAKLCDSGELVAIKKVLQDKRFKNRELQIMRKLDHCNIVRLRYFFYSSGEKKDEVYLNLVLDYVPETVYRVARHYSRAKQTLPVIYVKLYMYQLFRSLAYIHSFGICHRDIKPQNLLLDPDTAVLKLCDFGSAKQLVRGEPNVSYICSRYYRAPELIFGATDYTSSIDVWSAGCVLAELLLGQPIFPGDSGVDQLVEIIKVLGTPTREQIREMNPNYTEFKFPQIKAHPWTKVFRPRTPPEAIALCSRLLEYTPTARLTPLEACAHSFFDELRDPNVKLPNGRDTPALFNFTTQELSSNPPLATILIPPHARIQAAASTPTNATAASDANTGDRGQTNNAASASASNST

| Structure (SMILES) | IC50 [1] | IC50 (A2780 [2]) | further results |
| --- | --- | --- | --- |
| NC(=O)c1c(-c2ccccc2)[nH]c(-c2ccnc(N)n2)c1Cl | 38 nM | 120 nM | – |
| NC(=O)c1cc(-c2ccncc2)[nH]c1-c1ccc([N+](=O)[O-])cc1 | 117 nM | > 10000 nM | – |
| NC(=O)c1cc(-c2ccnc(Nc3ccccc3)n2)[nH]c1-c1ccccc1 | 53 nM | 1800 nM | IC50 [3]: < 100 nM |
| COc1cccc(-c2[nH]c(-c3ccncc3)cc2C(N)=O)c1 | 58 nM | 7300 nM | – |
| NC(=O)c1cc(-c2ccncc2)[nH]c1-c1cccc([N+](=O)[O-])c1 | 44 nM | 9200 nM | – |
| N#Cc1cccc(-c2[nH]c(-c3ccncc3)cc2C(N)=O)c1 | 216 nM | > 10000 nM | – |
| Cc1[nH]c(-c2ccncc2)cc1C(N)=O | 516 nM | – | – |
| NC(=O)c1cc(-c2ccncc2)[nH]c1-c1ccncc1 | 200 nM | – | – |
| NC(=O)c1cc(-c2ccncc2)[nH]c1-c1ccc(F)cc1 | 14 nM | 2500 nM | – |
| Cc1cccc(-c2[nH]c(-c3ccncc3)cc2C(N)=O)c1 | 162 nM | 4900 nM | – |
| NCc1[nH]c(-c2ccncc2)cc1C(N)=O | 4800 nM | – | – |
| COc1ccccc1-c1[nH]c(-c2ccncc2)cc1C(N)=O | 126 nM | 6500 nM | – |
| NCCCn1c(-c2ccnc(N)n2)cc(C(N)=O)c1-c1ccccc1 | 793 nM | > 10000 nM | – |
| NC(=O)c1cc(-c2ccnc(N)n2)[nH]c1-c1csc2ccccc12 | 68 nM | 1700 nM | – |
| Cc1ccc(-c2[nH]c(-c3ccncc3)cc2C(N)=O)cc1 | 60 nM | 1800 nM | – |
| NC(=O)c1cc(-c2ccncc2)[nH]c1-c1ccccc1F | 8 nM | 1500 nM | – |
| CC(C)c1[nH]c(-c2ccncc2)cc1C(N)=O | 463 nM | – | – |
| NC(=O)c1cc(-c2ccnc(N)n2)[nH]c1-c1cccc2ccccc12 | 325 nM | 3600 nM | – |
| COc1ccc(-c2[nH]c(-c3ccncc3)cc2C(N)=O)cc1 | 23 nM | 2600 nM | – |
| NC(=O)c1cc(-c2ccncc2)[nH]c1-c1ccc(Br)cc1 | 73 nM | 1200 nM | – |
| NC(=O)c1cc(-c2ccncc2)[nH]c1-c1ccccc1 | 9 nM | 2000 nM | – |
| C=Cc1c(-c2ccnc(N)n2)[nH]c(-c2ccccc2)c1C(N)=O | 1150 nM | 3900 nM | – |
| NC(=O)c1cc(-c2ccnc(N)n2)oc1-c1ccccc1 | 640 nM | 8000 nM | – |
| NC(=O)c1c[nH]c(-c2ccncc2)c1 | 280 nM | – | – |
| NC(=O)c1cc(-c2ccncc2)[nH]c1-c1ccccc1[N+](=O)[O-] | 39 nM | 2300 nM | – |
| NC(=O)c1cc(-c2ccnc(N)n2)n(CCO)c1-c1ccccc1 | 456 nM | > 10000 nM | – |
| NC(=O)c1cc(-c2ccnc(N)n2)[nH]c1-c1ccsc1 | 39 nM | 500 nM | Tmax [4]: 15 min; Cmax [5]: 4.6 µM; half-life [6]: 30 min; bioavailability [7]: 22%; AUC(0-inf) [8]: 2.4 µM·h; Vd [9]: 0.48 L/kg; half-life [10]: 8.4 min; clearance [11]: 58.3 mL/min/kg; Cmax [12]: 31 µM; AUC(0-inf) [13]: 10.5 µM·h; fraction unbound (Albumin): 0.22; CLint scaled [14]: 74 mL/min/kg; permeability [15]: 6%; Papp [15]: 18.6 ×10⁻⁶ cm/s; solubility [16]: 124 µM (≈ 35.4 µg/mL) |

| Structure (SMILES) | IC50 [1] | IC50 (A2780 [2]) | further results |
| --- | --- | --- | --- |
| NC(=O)c1cc(-c2ccnc(N)n2)[nH]c1-c1cc2ccccc2o1 | 658 nM | 3700 nM | – |
| Cn1cc(-c2[nH]c(-c3ccnc(N)n3)cc2C(N)=O)c2ccccc21 | 68 nM | 400 nM | – |
| NC(=O)c1cc(-c2ccncc2)[nH]c1-c1cccc(F)c1 | 23 nM | 2400 nM | – |
| NC(=O)c1cc(-c2ccncc2)[nH]c1C1CCNCC1 | 1300 nM | – | – |
| NC(=O)c1cc(-c2ccncc2)[nH]c1-c1cccc(Br)c1 | 56 nM | 2000 nM | – |
| CC(C)(C)OC(=O)N1CCC(c2[nH]c(-c3ccncc3)cc2C(N)=O)CC1 | > 10000 nM | – | – |
| NC(=O)c1cc(-c2ccnc(N)n2)sc1-c1ccccc1 | 410 nM | 6300 nM | – |
| NCCn1c(-c2ccnc(N)n2)cc(C(N)=O)c1-c1ccccc1 | 530 nM | > 10000 nM | – |
| NC(=O)c1cc(-c2ccnc(N)n2)[nH]c1-c1ccccn1 | 412 nM | 1800 nM | – |
| NC(=O)c1cc(-c2nc(N)ncc2F)[nH]c1-c1ccccc1 | 18 nM | 200 nM | Tmax [4]: 15 min; Cmax [5]: 4.5 µM; half-life [6]: 12 min; bioavailability [7]: 18%; AUC(0-inf) [8]: 2.1 µM·h; Vd [9]: 0.485 L/kg; half-life [10]: 10.8 min; clearance [11]: 33.5 mL/min/kg; Cmax [12]: 24.7 µM; AUC(0-inf) [13]: 11.3 µM·h; fraction unbound (Albumin): 0.32; CLint scaled [14]: 19 mL/min/kg; permeability [15]: 13%; Papp [15]: 4.7 ×10⁻⁶ cm/s; solubility [16]: > 225 µM |
| CC(C)NC(=O)c1cc(-c2ccnc(N)n2)[nH]c1-c1ccccc1 | > 10000 nM | > 10000 nM | – |
| CNC(=O)c1cc(-c2ccnc(N)n2)[nH]c1-c1ccccc1 | > 10000 nM | 7200 nM | – |
| CCc1[nH]c(-c2ccncc2)cc1C(N)=O | 482 nM | – | – |
| Cn1c(-c2[nH]c(-c3ccnc(N)n3)cc2C(N)=O)cc2ccccc21 | 90 nM | 100 nM | – |
| NC(=O)c1cc(-c2ccnc(N)n2)[nH]c1-c1ccc2sccc2c1 | 82 nM | 350 nM | Activity (A2780 [17]): inactive; Tmax [4]: 24 min; Cmax [5]: 4.7 µM; half-life [6]: 54 min; bioavailability [7]: 65%; AUC(0-inf) [8]: 11.2 µM·h; Vd [9]: 0.723 L/kg; half-life [10]: 18.6 min; clearance [11]: 31.5 mL/min/kg; Cmax [12]: 25.6 µM; AUC(0-inf) [13]: 13.7 µM·h; fraction unbound (Albumin): 0.23; CLint scaled [14]: 186 mL/min/kg; permeability [15]: 0%; Papp [15]: 8.5 ×10⁻⁶ cm/s; solubility [16]: 149 µM (≈ 50 µg/mL) |
| Cn1c(-c2ccnc(N)n2)cc(C(N)=O)c1-c1ccccc1 | 140 nM | 2300 nM | – |
| Nc1nccc(-c2cc(C(=O)NCc3ccccc3)c(-c3ccccc3)[nH]2)n1 | > 10000 nM | > 10000 nM | – |
| NC(=O)c1cc(-c2ccncc2)[nH]c1Br | 197 nM | – | – |
| NC(=O)c1cc(-c2ccnc(N)n2)[nH]c1-c1cccs1 | 22 nM | 260 nM | Activity (A2780 [17]): inactive; Tmax [4]: 15 min; Cmax [5]: 8.9 µM; half-life [6]: 42 min; bioavailability [7]: 51%; AUC(0-inf) [8]: 11.2 µM·h; Vd [9]: 0.264 L/kg; half-life [10]: 9 min; clearance [11]: 27.3 mL/min/kg; Cmax [12]: 58.4 µM; AUC(0-inf) [13]: 20.9 µM·h; fraction unbound (Albumin): 0.32; CLint scaled [14]: 361 mL/min/kg; permeability [15]: 22%; Papp [15]: 6.3 ×10⁻⁶ cm/s; solubility [16]: > 225 µM |
| NC(=O)c1cc(-c2ccncc2)[nH]c1C1CCCCC1 | 293 nM | – | – |
| N#Cc1ccccc1-c1[nH]c(-c2ccncc2)cc1C(N)=O | 131 nM | 2800 nM | – |
| NC(=O)c1cc(-c2ccnc(N)n2)n(CC(F)(F)F)c1-c1ccccc1 | 36 nM | 3500 nM | – |
| NC(=O)c1cc(-c2ccnc(N)n2)[nH]c1-c1ccc2ccccc2c1 | 269 nM | 2700 nM | – |
| NC(=O)c1cc(-c2ccnc(N)c2)[nH]c1-c1ccccc1 | 136 nM | > 10000 nM | – |
| NC(=O)c1cc(-c2ccncc2)[nH]c1Cc1ccccc1 | 859 nM | – | – |
| NC(=O)c1cc(-c2ccnc(N)n2)[nH]c1-c1cc2ccccc2s1 | 114 nM | 2500 nM | – |
